From paper PMC12368479, “Inhibition of the Clathrin Terminal Domain—Amphiphysin Protein–Protein Interaction. Probing the Pitstop 2 Aromatic Moiety” (Chemmedchem, 2025)
Where “and” joins values, the source holds several entries; their conditions need not be identical. Equal entries are not always repeated. Where two headings read alike, the source gives them in different places.

Columns and labels:
[1] = target: T1, clathrin heavy chain NTD (amino acids 1–364) – amphiphysin 1 B/C domain protein–protein interaction (NTD‐PPI) (Homo sapiens, UniProt Q00610); experiment: ELISA-based clathrin inhibitor binding assay (NTD-PPI)
T1 construct: GST‐tagged clathrin heavy chain NTD (amino acids 1–364); made in house
T1 sequence (Q00610 1-364): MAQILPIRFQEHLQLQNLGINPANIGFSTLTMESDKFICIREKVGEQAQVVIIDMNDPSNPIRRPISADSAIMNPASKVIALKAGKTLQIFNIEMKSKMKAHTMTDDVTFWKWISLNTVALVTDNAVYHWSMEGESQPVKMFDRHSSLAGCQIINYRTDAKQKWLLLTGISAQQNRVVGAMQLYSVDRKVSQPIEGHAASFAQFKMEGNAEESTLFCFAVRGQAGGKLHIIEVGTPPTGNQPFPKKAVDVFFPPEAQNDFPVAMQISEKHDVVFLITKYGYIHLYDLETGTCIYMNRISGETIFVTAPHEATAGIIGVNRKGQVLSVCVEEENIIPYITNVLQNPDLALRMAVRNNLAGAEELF
Experimental: The clathrin inhibitor assay was based inhibition of protein–protein interaction (PPI) between clathrin and amphiphysin as described in our previous report.^[ [45], [54] ^] Bacterially expressed recombinant purified His6‐tagged amphiphysin 1 B/C domain (which comprises both the clathrin and the AP‐2 binding sites, amino acids 250‐578^[ [55] ^]) in screening buffer (20 mM HEPES, pH 7.4, 50 mM NaCl, 1 mM DTT, 1 mM PMSF) was added to a 384 well ELISA plate (Corning Maxisorp 3700) and bound to the plastic for 1 h at room temperature. […] Following extensive washes (with 20 mM HEPES, pH 7.4, 50 mM NaCl, 0.05% Tween 20), chemical compounds diluted in DMSO (10 μL) were added and incubated together with bacterially expressed recombinant GST‐tagged clathrin heavy chain NTD (amino acids 1–364) for 1 h at room temperature in screening buffer. After 3 washes, horseradish peroxidase‐coupled anti‐GST antibodies were added in screening buffer and the plate incubated for 40 min at room temperature. Following additional washes, 50 μL TMB (3,3′,5,5′‐tetramethylbenzidine) (Pierce Biotechnology) chromogenic substrate of horseradish peroxidase was added, and the plate was incubated for 10 min before the reaction was terminated by adding 50 μL 1N sulfuric acid to produce a yellow colour. The amount of bound protein was determined by spectrophotometric measurement in a plate reader. Relative binding was calculated as a percentage of DMSO control.

[2] = target: T2, full length human Dynamin I (Homo sapiens, UniProt Q05193); experiment: Dynamin GTPase activity, Malachite Green phosphate detection assay; format: biochemical
T2 construct: full length human Dynamin I expressed in Sf21 insect cells; made in house; host or cells: Sf21 insect cells
T2 sequence (Q05193 1-864): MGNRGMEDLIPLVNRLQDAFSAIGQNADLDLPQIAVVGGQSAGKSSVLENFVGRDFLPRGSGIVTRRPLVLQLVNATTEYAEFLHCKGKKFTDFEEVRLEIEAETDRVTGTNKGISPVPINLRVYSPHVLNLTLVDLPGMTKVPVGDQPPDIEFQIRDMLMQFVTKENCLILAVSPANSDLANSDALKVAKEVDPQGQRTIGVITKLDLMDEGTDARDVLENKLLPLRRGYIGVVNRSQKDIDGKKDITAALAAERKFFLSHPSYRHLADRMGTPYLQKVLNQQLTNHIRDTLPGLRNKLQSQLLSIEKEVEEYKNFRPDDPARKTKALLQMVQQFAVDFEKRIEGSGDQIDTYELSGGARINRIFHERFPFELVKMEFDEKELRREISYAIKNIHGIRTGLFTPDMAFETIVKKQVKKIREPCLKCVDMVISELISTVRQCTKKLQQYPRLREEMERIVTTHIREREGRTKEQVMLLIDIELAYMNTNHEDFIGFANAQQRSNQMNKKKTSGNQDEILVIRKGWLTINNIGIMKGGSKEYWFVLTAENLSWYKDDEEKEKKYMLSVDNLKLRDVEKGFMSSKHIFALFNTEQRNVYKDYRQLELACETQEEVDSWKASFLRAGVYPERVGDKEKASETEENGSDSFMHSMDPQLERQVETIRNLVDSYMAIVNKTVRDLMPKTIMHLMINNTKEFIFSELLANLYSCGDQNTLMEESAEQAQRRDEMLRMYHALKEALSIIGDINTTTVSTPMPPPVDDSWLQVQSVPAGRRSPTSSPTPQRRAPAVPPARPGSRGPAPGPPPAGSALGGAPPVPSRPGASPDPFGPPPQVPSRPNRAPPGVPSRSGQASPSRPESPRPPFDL
Experimental: Dynamin GTPase activity was determined in vitro using the Malachite Green phosphate detection absorbance‐based assay within a 96‐well plate format as described previously. The enzyme source was full length human Dynamin I expressed in Sf21 insect cells and affinity‐purified on GST‐Amph2‐SH3 (rat Amphiphysin 2 (494–588)).^[ [56] ^]

[3] = system: transferrin uptake (CME) in U2OS osteosarcoma cells; experiment: Clathrin-mediated endocytosis assay: transferrin (Tfn) uptake in U2OS cells; format: cell-based; conditions: for IC50 / inhibition at 5 µM / inhibition at 50 µM: Homo sapiens, U2OS; for IC50: Table 5, inhibition of transferrin‐red uptake in U2OS cells, '–'/NA = not active at 100 μM; for inhibition at 5 µM: read-out: 2-point CME (% Inhibition) 5 µM; for inhibition at 50 µM: read-out: 2-point CME (% Inhibition) 50 µM
Experimental: Using our previously reported CME assay in U2OS cells, the ability of these compounds to block endocytosis was examined (Table 5 ).^[ [48], [49] ^]
CME was examined by a high‐throughput, quantitative assay for measuring transferrin (Tfn) uptake in U2OS osteosarcoma cells, based on methods described previously.^[ [48] ^]
Compounds were made up fresh from powder stock just prior to commencing the assay, and stock solutions were stored at −20 °C for several months.

[4] = Table 5, ELISA, read-out: NTD‐PPI IC50
[5] = Table 1, library 1, n = 1 unless noted (19: n = 2), '–' = not active at 150 μM, read-out: Dyn 1 IC50
[6] = Table 5, dynamin GTPase, n = 1 or n = 2 as footnoted, NA = not active at 100 μM, read-out: Dynamin 1 IC50
[7] = Table 4, library 4, ELISA, average of duplicate measurements (n = 2), read-out: NTD‐PPI IC50
[8] = Table S1, preliminary (n=1) unless otherwise noted, NA = not active, includes IC50 > 150 μM, read-out: Dynamin 1 IC50
[9] = Table S1, average of duplicate measurements (n=2), read-out: NTD-PPI IC50
[10] = Table 4, library 4, n = 1 or n = 2 as footnoted, '–' = not active at 100 μM, read-out: Dynamin 1 IC50

| SMILES | IC50 [1, 4] | IC50 [2, 6] | IC50 [3] | IC50 [1, 7] | IC50 ([1]; read-out: NTD‐PPI IC50 (ELISA)) | IC50 [2, 8] | IC50 [2, 10] | inhibition at 5 µM [3] | inhibition at 50 µM [3] | further results |
| --- | --- | --- | --- | --- | --- | --- | --- | --- | --- | --- |
| O=C1N=C(NS(=O)(=O)c2cccc3ccccc23)S/C1=C\c1ccc([N+](=O)[O-])cc1 [compound 13, (Z)‐N‐(5‐(4‐nitrobenzylidene)‐4‐oxo‐4,5‐dihydrothiazol‐2‐yl)naphthalene‐1‐sulfonamide] | 5.2 µM | 55.8 µM | ~14.6 µM |  |  |  |  |  |  | IC50 ([1]; Table 1, library 1, ELISA, average of duplicate measurements (n=2), read-out: NTD‐PPI IC50): 5.2 µM; IC50 [2, 5]: ~56 µM; CME activity compared with Pitstop 2 ([3]; U2OS cells, in words): comparable |
| CCCC/C=C1\SC(NS(=O)(=O)c2cccc3ccccc23)=NC1=O [compound 42, (Z)‐N‐(4‐oxo‐5‐pentylidene‐4,5‐dihydrothiazol‐2‐yl)naphthalene‐1‐sulfonamide] |  |  |  |  |  | > 150 µM |  | 0% | 31% | IC50 ([1]; Table 3, library 3, ELISA, average of duplicate measurements (n = 2), read-out: NTD‐PPI IC50): 6.5 µM; IC50 ([2]; Table 3, library 3, n = 1 unless otherwise stated (41, 42: n = 2), '–' = not active at 100 μM, read-out: Dynamin 1 IC50): > 100 µM |
| Cc1ccc2[nH]cc(/C=C3\SC(NS(=O)(=O)c4cccc5ccccc45)=NC3=O)c2c1 [compound 63, (Z)‐N‐(5‐((5‐methyl‐1H‐indol‐3‐yl)methylene)‐4‐oxo‐4,5‐dihydrothiazol‐2‐yl)naphthalene‐1‐sulfonamide] |  |  |  | 3.52 µM | 3.5 µM | > 150 µM | > 100 µM | 6% | 68% |  |
| O=C1N=C(NS(=O)(=O)c2cccc3ccccc23)S/C1=C\c1ccc2[nH]ccc2c1 [compound 59, (Z)‐N‐(5‐((1H‐indol‐5‐yl)methylene)‐4‐oxo‐4,5‐dihydrothiazol‐2‐yl)naphthalene‐1‐sulfonamide] |  |  |  | 3.66 µM |  |  | 83.8 ± 10.7 µM | 0% | 83% | IC50 [1, 9]: 3.7 µM |
| O=C1N=C(NS(=O)(=O)c2cccc3ccccc23)SC1=Cc1ccc(-c2ccccc2)cc1 [compound 18, N‐(5‐([1,1'‐biphenyl]‐4‐ylmethylene)‐4‐oxo‐4,5‐dihydrothiazol‐2‐yl)naphthalene‐1‐sulfonamide] | 1.4 µM | 85.3 µM | ~43.1 µM |  |  |  |  |  |  | IC50 [2, 5]: 85 µM |
| O=C1N=C(NS(=O)(=O)c2cccc3ccccc23)S/C1=C\c1cn(S(=O)(=O)c2ccccc2)c2ccccc12 [compound 68, (Z)‐N‐(4‐oxo‐5‐((1‐(phenylsulfonyl)‐1H‐indol‐3‐yl)methylene)‐4,5‐dihydrothiazol‐2‐yl)naphthalene‐1‐sulfonamide] | 27 µM | 99.8 ± 3.1 µM | > 100 µM | 27 µM |  |  | 99.8 ± 3.1 µM | 8% | 59% |  |
| O=C1N=C(NS(=O)(=O)c2cccc3ccccc23)S/C1=C\c1ccc2c(c1)OCO2 [compound 56, (Z)‐N‐(5‐(benzo[d][1,3]dioxol‐5‐ylmethylene)‐4‐oxo‐4,5‐dihydrothiazol‐2‐yl)naphthalene‐1‐sulfonamide] | 3.2 µM |  | 19.4 ± 10.5 µM | 3.2 µM | < 5 µM and 4 µM |  | > 100 µM |  |  | NTD‐PPI activity relative to 54 ([1]; ELISA, in words): threefold less active; CME activity compared with Pitstop 2 ([3]; U2OS cells, in words): comparable; CME inhibition relative to dihydrobenzofuran 57 ([3]; U2OS cells, in words): threefold increase |
| O=C1N=C(NS(=O)(=O)c2cccc3ccccc23)S/C1=C\c1c[nH]c2cc(Br)ccc12 [compound 64, (Z)‐N‐(5‐((6‐bromo‐1H‐indol‐3‐yl)methylene)‐4‐oxo‐4,5‐dihydrothiazol‐2‐yl)naphthalene‐1‐sulfonamide] |  |  |  | 3.42 µM | 3.4 µM | > 150 µM | > 100 µM | 17% | 70% |  |

Now from value to molecule, other results behind:

| IC50 [1, 4] | IC50 [2, 6] | IC50 [3] | IC50 [1, 7] | IC50 ([1]; read-out: NTD‐PPI IC50 (ELISA)) | IC50 [2, 8] | IC50 [2, 10] | SMILES | inhibition at 5 µM [3] | inhibition at 50 µM [3] | further results |
| --- | --- | --- | --- | --- | --- | --- | --- | --- | --- | --- |
|  |  |  | 3.05 µM | 3 µM | > 150 µM |  | Cn1cc(/C=C2\SC(NS(=O)(=O)c3cccc4ccccc34)=NC2=O)c2ccccc21 [compound 61, (Z)‐N‐(5‐((1‐methyl‐1H‐indol‐3‐yl)methylene)‐4‐oxo‐4,5‐dihydrothiazol‐2‐yl)naphthalene‐1‐sulfonamide] | 9% | 69% |  |
|  |  |  | 2.91 µM |  | > 150 µM | > 100 µM | O=C1N=C(NS(=O)(=O)c2cccc3ccccc23)S/C1=C\c1c[nH]c2ccc(Br)cc12 [compound 65, (Z)‐N‐(5‐((5‐bromo‐1H‐indol‐3‐yl)methylene)‐4‐oxo‐4,5‐dihydrothiazol‐2‐yl)naphthalene‐1‐sulfonamide] | 0% | 64% | IC50 [1, 9]: 2.9 µM |
|  |  |  | 3.2 µM |  | > 150 µM |  | O=C1N=C(NS(=O)(=O)c2cccc3ccccc23)S/C1=C\c1c[nH]c2ccccc12 [compound 60, (Z)‐N‐(5‐((1H‐indol‐3‐yl)methylene)‐4‐oxo‐4,5‐dihydrothiazol‐2‐yl)naphthalene‐1‐sulfonamide] | 0% | 38% |  |
|  |  |  | 2.37 µM | 2.4 µM | > 150 µM | > 100 µM | Cc1[nH]c2ccccc2c1/C=C1\SC(NS(=O)(=O)c2cccc3ccccc23)=NC1=O [compound 62, (Z)‐N‐(5‐((2‐methyl‐1H‐indol‐3‐yl)methylene)‐4‐oxo‐4,5‐dihydrothiazol‐2‐yl)naphthalene‐1‐sulfonamide] | 6% | 71% |  |
| 1.2 µM | 60.1 ± 8.6 µM | ~35 µM | 1.2 µM | 1.16 µM |  | 60.1 ± 8.6 µM | O=C1N=C(NS(=O)(=O)c2cccc3ccccc23)S/C1=C\c1ccc2c(c1)OCCO2 [compound 54, (Z)‐N‐(5‐((2,3‐dihydrobenzo[b][1,4]dioxin‐6‐yl)methylene)‐4‐oxo‐4,5‐dihydrothiazol‐2‐yl)naphthalene‐1‐sulfonamide] |  |  | fold activity increase (NTD‐PPI) relative to 56 ([1]; ELISA): > 3 fold; IC50 ([2]; values quoted in running text (section 2.2), read-out: Dynamin IC50): 60 µM; CME activity compared with Pitstop 2 ([3]; U2OS cells, in words): threefold decrease |
